Results from patent US20110275517A1, “SYNERGISTIC HERBICIDAL COMPOSITION CONTAINING A DICAMBA DERIVATIVE AND A […]” (DOW AGROSCIENCES LLC, priority 2010, published 2011).

What was measured:
Assay type in all cases: in vivo
Conditions in all cases: rated after 14-21 d
[1] = system: COMBE = Commelina benghalensis (Dayflower); assay: Greenhouse postemergence foliar herbicidal test on COMBE
Method: (§1) Seeds of the desired test plant species were planted in Sun Gro MetroMix 306 planting mixture, which typically has a pH of 6.0 to 6.8 and an organic matter content of about 30 percent, in plastic pots with a surface area of 103.2 square centimeters (cm^2). […] The plants were grown for 7-36 days (d) in a greenhouse with an approximate 16 hour (h) photoperiod which was maintained at about 28° C. during the day and 26° C. during the night. Nutrients and water were added on a regular basis and supplemental lighting was provided with overhead metal halide 1000-Watt lamps as necessary. The plants were employed for testing when they reached the second or third true leaf stage.
(§2) Treatments consisted of Banvel™ (dicamba dimethylamine salt) and Durango™ herbicide (glyphosate dimethylamine salt) alone and in combinations. An aliquot of
(§3) Banvel^TM (dicamba dimethylamine salt) was placed in 25 milliliter (mL) glass vials and diluted in a volume of water to obtain 1.5 milligrams (mg) active ingredient (ai)/mL concentrated solutions. Subsequent concentrations of Banvel™ (dicamba dimethylamine salt) were obtained by dilution with an equal volume of water. Spray solutions of Durango™ herbicide (glyphosate dimethylamine salt) were prepared following the aforementioned procedure. An aliquot of Durango™ herbicide (glyphosate dimethylamine salt) was placed in 25 milliter (mL) glass vials and mixed in a volume of 100:2 w/w water/ammonium sulfate (AMS) dilution solution to obtain 1.5 milligrams (mg) active ingredient (ai)/mL concentrated solutions.
(§4) Compound requirements are based upon a 12 mL application volume at a rate of 187 liters per hectare (L/ha). Spray solutions of the Banvel^TM (dicamba dimethylamine salt) and Durango™ herbicide (glyphosate dimethylamine salt) were prepared by adding the concentrated solutions to the appropriate amount of dilution solution to form 12 mL spray solution with active ingredients in combination. Banvel™ (dicamba dimethylamine salt) and Durango™ herbicide (glyphosate dimethylamine salt) alone and in combinations were applied to the foliage of plant material with an overhead Mandel track sprayer equipped with 8002E nozzles calibrated to deliver 187 L/ha over an application area of 0.503 square meters (m^2) at a spray height of 18 inches (43 cm) above average plant canopy. Control plants were sprayed in the same manner with the solvent blank.
(§5) The treated plants and control plants were placed in a greenhouse as described above and watered by sub-irrigation to prevent wash-off of the test compounds. After 14-21 d, the condition of the test plants as compared with that of the control plants was determined visually and scored on a scale of 0 to 100 percent where 0 corresponds to no injury and 100 corresponds to complete kill.
(§6) Colby's equation was used to determine the herbicidal effects expected from the mixtures (Colby, S. R. 1967. Calculation of the synergistic and antagonistic response of herbicide combinations. Weeds 15:20-22.).
(§7) The following equation was used to calculate the expected activity of mixtures containing two active ingredients, A and B:
(§8) A=observed efficacy of active ingredient A at the same concentration as used in the mixture;
(§9) B=observed efficacy of active ingredient B at the same concentration as used in the mixture.

[2] = system: CHEAL GLY-RES (Glyphosate-resistant Chenopodium album); assay: Greenhouse postemergence foliar herbicidal test on CHEAL GLY-RES
Method: as §1, §2, §3, §4, §5, §6, §7, §8, §9

[3] = system: ERICA GLY-RES (Glyphosate-resistant Conyza canadensis); assay: Greenhouse postemergence foliar herbicidal test on ERICA GLY-RES
Method: as §1, §2, §3, §4, §5, §6, §7, §8, §9

[4] = system: ERICA = Conyza canadensis (horseweed/marestail); assay: Greenhouse postemergence foliar herbicidal test on ERICA
Method: as §1, §2, §3, §4, §5, §6, §7, §8, §9

[5] = system: CHEAL = Chenopodium album (Common lambsquarters/fat hen); assay: Greenhouse postemergence foliar herbicidal test on CHEAL
Method: as §1, §2, §3, §4, §5, §6, §7, §8, §9

Structure (SMILES)	Herbicidal effect, observed (Ob), visual injury 0-100 ([1]; applied alone at 35 g/ha) [%]	Herbicidal effect, observed (Ob), visual injury 0-100 ([1]; applied alone at 70 g/ha) [%]	Herbicidal effect, observed (Ob), visual injury 0-100 ([1]; applied alone at 140 g/ha) [%]	Herbicidal effect, observed (Ob), visual injury 0-100 ([1]; applied alone at 280 g/ha) [%]	Herbicidal effect, observed (Ob), visual injury 0-100 ([2]; applied alone at 35 g/ha) [%]	Herbicidal effect, observed (Ob), visual injury 0-100 ([2]; applied alone at 70 g/ha) [%]	Herbicidal effect, observed (Ob), visual injury 0-100 ([2]; applied alone at 140 g/ha) [%]	Herbicidal effect, observed (Ob), visual injury 0-100 ([2]; applied alone at 280 g/ha) [%]	Herbicidal effect, observed (Ob), visual injury 0-100 ([3]; applied alone at 35 g/ha) [%]	Herbicidal effect, observed (Ob), visual injury 0-100 ([3]; applied alone at 70 g/ha) [%]	Herbicidal effect, observed (Ob), visual injury 0-100 ([3]; applied alone at 140 g/ha) [%]	Herbicidal effect, observed (Ob), visual injury 0-100 ([3]; applied alone at 280 g/ha) [%]	Herbicidal effect, observed (Ob), visual injury 0-100 ([4]; applied alone at 35 g/ha) [%]	Herbicidal effect, observed (Ob), visual injury 0-100 ([4]; applied alone at 70 g/ha) [%]	Herbicidal effect, observed (Ob), visual injury 0-100 ([4]; applied alone at 140 g/ha) [%]	Herbicidal effect, observed (Ob), visual injury 0-100 ([4]; applied alone at 280 g/ha) [%]	Herbicidal effect, observed (Ob), visual injury 0-100 ([5]; applied alone at 35 g/ha) [%]	Herbicidal effect, observed (Ob), visual injury 0-100 ([5]; applied alone at 70 g/ha) [%]	Herbicidal effect, observed (Ob), visual injury 0-100 ([5]; applied alone at 140 g/ha) [%]	Herbicidal effect, observed (Ob), visual injury 0-100 ([5]; applied alone at 280 g/ha) [%]
COc1c(Cl)ccc(Cl)c1C(=O)O [Dicamba, 3,6-dichloro-2-methoxybenzoic acid]	18	25	43	42	33	48	64	83	62	83	95	97	62	81	93	97	34	40	52	61
O=C(O)CNCP(=O)(O)O [Glyphosate + AMS, N-(phosphonomethyl)glycine]	7	27	49	58	9	9	41	51	0	0	3	7	47	55	72	78	8	12	57	66
